Laboratory results as given in patent publication US20170071944A1, “MODULATORS OF TOLL-LIKE RECEPTORS FOR THE TREATMENT OF HIV” (Gilead Sciences, Inc., priority 2015, published 2017).
Several values for one entry are separate records, joined by “and”; a condition that tells them apart may be missing. Equal entries are not always repeated.

Legend:
[1] = test system: serum cytokines and chemokines associated with TLR8 activation; experiment: Induction of cytokines and chemokines in Rhesus macaques (serum, Luminex); format: in vivo
Protocol: The TLR8 modulator of Example 65 was formulated in 2% ethanol, 40% polyethylene glycol 300, and 58% 0.01 N hydrochloric acid. Oral solutions of formulations were prepared by dissolving a sufficient amount of the compound in the 2% ethanol, 40% polyethylene glycol 300, and 58% 0.01 N hydrochloric acid vehicle to arrive at 0.5, 1.5, or 5 mg/ml of Example 65. Rhesus macaques were dosed orally with 1.2 to 2 mls/kg to achieve dose levels of 1, 3, 6, or 10 mg/kg Example 65. Blood samples were collected at 2, 4, 8, 12, 24 and 48 hours postdose (FIG. 5) and allowed to clot under ambient conditions prior to centrifugation to obtain serum. The indicated cytokines and chemokines were quantified in serum with a multiplexed Luminex® assay following the manufacturer's instructions (Life Technologies). […] At 10 and 6 mg/kg, IL-12, IL-1RA and MCP-1 peaked near 10 ng/ml and IL-6 peaked at 1 ng/ml.

[2] = test system: HIV-specific polyfunctional CD8 T cells; experiment: Induced HIV-specific polyfunctional CD8+ T cells in PBMC cultures from HIV-1 infected subjects on cART; format: cell-based, human; details: for Median HIV-specific polyfunctional CD8 T cells (% proliferating CD8+ cells double positive for IFN-γ and TNF-α): 5 subjects, vehicle 0.73% (Example 15 group), 0.13% (Example 98 group)
[3] = test system: HIV-1 expression in PBMC cultures from HIV-1 infected subjects on cART; experiment: Induced HIV-1 expression in PBMC cultures from HIV-1 infected subjects on cART (HIV-1 RNA in culture supernatant, COBAS TaqMan); format: cell-based, human; details: for Fold HIV-1 Activation, Geometric Mean with ≧2-Fold-Activation / Fold HIV-1 Activation, Range with ≧2-Fold-Activation: N = 5 subjects
Protocol: In some experiments, IL-15, the TLR8 modulating compound of Example 15 or the combination of IL-15 and Example 15 were used at the indicated concentrations (Table 4). The cultures were maintained in the presence of antivirals (elvitegravir and efavirenz at 100 nM each) to prevent viral spread and amplification in order to measure the quantity of virus produced (latency reversal) by the TLR8 modulating compounds. At the end of the incubation period, cell-free culture supernatants were harvested and HIV-1 RNA levels were quantified by the COBAS® AmpliPrep/COBAS®TaqMan HIV-1 Test, v2.0 (Roche).
In each table, fold-activation is calculated as a ratio of HIV-1 RNA copies per ml of cell culture supernatants from TLR8 agonist treated samples and DMSO treated controls. Geometric mean fold-activation from three independent incubation samples for each condition of each subject's PBMCs.
To assess if the latency reversal induced by TLR8 agonism could further potentiate latency reversal by a separate mechanisms, we treated cells as described above with IL-15, Example 15, or a combination of IL-15 and Example 15 (Table 4).

[4] = Example 15 1000 nM and/or IL-15 1 nM, subjects 205-210

CCCC[C@](C)(CNC(C)=O)Nc1nc(N)nc2cc(Cl)cnc12 [Example 65]
Induction of cytokines associated with TLR8 activation, including IL-12, IL-6, IL-1RA and MCP-1 ([1]; oral, 1, 3, 6, or 10 mg/kg): induced in a dose-dependent manner
Time of peak cytokine concentrations post-dose ([1]; oral, 1, 3, 6, or 10 mg/kg): 2 h
Serum IL-1RA peak ([1]; oral, 10 and 6 mg/kg): ~10 ng/mL
Serum IL-6 peak ([1]; oral, 10 and 6 mg/kg): 1 ng/mL
Serum IL-12 peak ([1]; oral, 10 and 6 mg/kg): ~10 ng/mL
Serum MCP-1 peak ([1]; oral, 10 and 6 mg/kg): ~10 ng/mL

CCCCC(C)(CO)Nc1nc(N)nc2cc(F)cnc12 (stereo not drawn) [Example 98]
Patients in whom increases were seen ([2]; 100 nM): 4 of 5
Median HIV-specific polyfunctional CD8 T cells (% proliferating CD8+ cells double positive for IFN-γ and TNF-α) ([2]; 100 nM with HIV peptide pool): 0.93%
Patients in whom increases were seen ([2]; 1000 nM): 4 of 5
Increase of median HIV-specific polyfunctional CD8 T cells ([2]; 1000 nM combined with the HIV specific peptide pool, p<0.05): 7.1 fold
Median HIV-specific polyfunctional CD8 T cells (% proliferating CD8+ cells double positive for IFN-γ and TNF-α) ([2]; 1000 nM with HIV peptide pool): 0.92%

CCC[C@@H](CO)Nc1nc(N)nc2cc(F)c(F)cc12 [Example 119, (S)-2-((2-amino-6,7-difluoroquinazolin-4-yl)amino)pentan-1-ol, reference compound]
Fold HIV-1 Activation ([3]; 156 nM, 4 days, individual subjects 151-155, vs DMSO): 3.6 fold and 4.9 fold and 0.4 fold
Fold HIV-1 Activation, Geometric Mean with ≧2-Fold-Activation ([3]; 156 nM): 4.2 fold
Fold HIV-1 Activation, Range with ≧2-Fold-Activation ([3]; 156 nM): 3.6-4.9 fold
N with ≧2-Fold-Activation ([3]; 156 nM, subjects 151-155): 2 of 3
N with ≧2-Fold-Activation (%) ([3]; 156 nM, subjects 151-155): (67) %
Fold HIV-1 Activation ([3]; 625 nM, 4 days, individual subjects 151-155, vs DMSO): 3.4 fold and 4.1 fold and 4.8 fold and 0.3 fold and 0.5 fold
Fold HIV-1 Activation, Geometric Mean with ≧2-Fold-Activation ([3]; 625 nM): 4.1 fold
Fold HIV-1 Activation, Range with ≧2-Fold-Activation ([3]; 625 nM): 3.4-4.8 fold
N with ≧2-Fold-Activation ([3]; 625 nM, subjects 151-155): 3 of 5
N with ≧2-Fold-Activation (%) ([3]; 625 nM, subjects 151-155): (60) %
Fold HIV-1 Activation ([3]; 2,500 nM, 4 days, individual subjects 151-155, vs DMSO): 4.1 fold and 4.2 fold and 3.2 fold and 5.2 fold and 2.2 fold
Fold HIV-1 Activation, Geometric Mean with ≧2-Fold-Activation ([3]; 2,500 nM): 3.6 fold
Fold HIV-1 Activation, Range with ≧2-Fold-Activation ([3]; 2,500 nM): 2.2-5.2 fold
N with ≧2-Fold-Activation ([3]; 2,500 nM, subjects 151-155): 5 of 5
N with ≧2-Fold-Activation (%) ([3]; 2,500 nM, subjects 151-155): (100) %
Fold HIV-1 Activation, Geometric Mean with ≧2-Fold-Activation ([3]; 156, 625, or 2500 nM): 4.1 fold
Fold HIV-1 Activation, Range with ≧2-Fold-Activation ([3]; 156, 625, or 2500 nM): 2.2-5.2 fold
N with ≧2-Fold-Activation ([3]; 156, 625, or 2500 nM, subjects 151-155): 5 out of 5 and 5 of 5

IL-15: interleukin IL-15, used at 1 nM as a separate latency reversal mechanism
Fold HIV-1 Activation, Geometric Mean ([3]; Example 15 1000 nM and/or IL-15 1 nM, N = 6 subjects): 2.9 fold
Fold HIV-1 Activation ([3]; Example 15 1000 nM and/or IL-15 1 nM, individual subjects 205-210, vs DMSO): 2.6 fold and 3.3 fold and 4.4 fold and 6.3 fold and 1.4 fold and 1.6 fold
N with ≧2-Fold-Activation [3, 4]: 4 of 6
N with ≧2-Fold-Activation (%) [3, 4]: 66%
